Reference: ChEMBL document CHEMBL4765356, “Synthesis and biological evaluation of thiophenylbenzofuran derivatives as potential P-glycoprotein inhibitors” (Eur J Med Chem, 2020)

What was measured:
[1] = Cytotoxicity against Flp-In-293 cells assessed as reduction in cell viability measured after 72 hrs by SRB assay; type: cell-based; details: Homo sapiens, Flp-In-293, 72 h
[2] = Cytotoxicity against Flp-In-293 cells expressing human ABCB1 assessed as reduction in cell viability measured after 72 hrs by SRB assay; type: ADME, cell-based; details: Flp-In-293, 72 h
HeLa = assay: Cytotoxicity against human HeLa cells assessed as reduction in cell viability measured after 72 hrs by SRB assay; type: cell-based
[3] = Cytotoxicity against human KB-VIN cells assessed as reduction in cell viability measured after 72 hrs by SRB assay; type: cell-based; details: KBVIN

Measured: IC50

COc1ccc(CCN(C)CCCC(C#N)(c2ccc(OC)c(OC)c2)C(C)C)cc1OC (centres undefined)
> 50 µM: all assays above
